Source: ChEMBL document CHEMBL1201862, “PubChem BioAssay data set” (2004)
The source made the active and inactive calls.

What was measured:
[1] = molecular target: Lysosomal acid glucosylceramidase (Homo sapiens, UniProt P04062); assay: Dose response cell-based high throughput screening assay to identify enhancers of beta-glucosidase activity. [Related pubchem assays: 784 ]; format: functional
[2] = luciferase reporter signal suppression in cells – H4 neuroglioma cells, luminescence, dose response (AID 1990); format: functional, cell-based
[3] = Luminescence Cell-Based Dose Response HTS to Identify Inhibitors of 5'UTR Stem-Loop Driven Prion Protein mRNA Translation in H4 Neuroglioblastoma Cells. [Related pubchem assays: 1827 (Project Summary), 1813 (Primary HTS)]; format: functional
[4] = alpha-synuclein stem-loop luciferase translation blockers – H4 neuroglioma cells, luminescence, confirmation (AID 1988); format: functional, cell-based
[5] = Trypanosoma cruzi growth suppression in host cells – NIH3T3 host cells, beta-gal luminescence, confirmation (AID 2044); format: functional, cell-based;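 also: intracellular parasites grown in NIH/3T3 mouse fibroblasts as host cells; luminescent beta-galactosidase reporter signal from transgenic T. cruzi replicating inside host cells; inhibitors lower the luminescence signal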
[6] = NIH3T3 cell viability loss – ATP luminescence, mouse fibroblasts, counter-screen, dose response (AID 2010); format: functional, cell-based;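 also: cells exposed to compound for about 90 hours before reading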
[7] = Luminescent dose response cell-based high throughput screening assay for inhibitors of the Janus kinase 2 mutant JAK2V617F. [Related pubchem assays: 1446 (Primary screen.), 1521 (Confirmation assay.), 1486 (Counter screen.)]; format: functional
[8] = NIH-3T3 fibroblast cytotoxicity, dose response, cytotoxicity control, cell-based, fluorescence, Alamar Blue, secondary assay (AID 2327); format: functional;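 also: NIH-3T3 mouse fibroblasts cultured with fluconazole at 8 µg/mL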
[9] = fluconazole-exposed Candida albicans growth modulators – fluorescence, retest, confirmation (AID 2467); format: functional, cell-based
Vero = assay: cells; format: functional; conditions: Chlorocebus sabaeus
[10] = A Cell Based Secondary Assay To Explore Cytotoxicity of Compounds that Sensitize Mycobacterium Tuberculosis to Beta-Lactam Antibiotics.; format: functional
[11] = molecular target: Heat shock protein HSP 90-alpha (Homo sapiens, UniProt P07900); format: functional, organism-based
Cytochrome P450 2D6 = Cytochrome P450 2D6 (Homo sapiens, UniProt P10635); assay: qHTS Assay for Inhibitors and Substrates of Cytochrome P450 2D6. [Related pubchem assays: 410 ]; format: ADME; conditions: read-out: Potency
Cytochrome P450 2C19 = Cytochrome P450 2C19 (Homo sapiens, UniProt P33261); assay: Cytochrome panel assay with activity outcomes. Panel member name: p450-cyp2c19 Compounds with AC50 equal or less than 10 uM are considered active; format: functional; conditions: read-out: AC50
Cytochrome P450 1A2 = molecular target: T1, Cytochrome P450 1A2 (Homo sapiens, UniProt P05177);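 also: PubChem cytochrome P450 panel assay, CYP1A2 panel member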
T1 sequence (P05177 whole entry): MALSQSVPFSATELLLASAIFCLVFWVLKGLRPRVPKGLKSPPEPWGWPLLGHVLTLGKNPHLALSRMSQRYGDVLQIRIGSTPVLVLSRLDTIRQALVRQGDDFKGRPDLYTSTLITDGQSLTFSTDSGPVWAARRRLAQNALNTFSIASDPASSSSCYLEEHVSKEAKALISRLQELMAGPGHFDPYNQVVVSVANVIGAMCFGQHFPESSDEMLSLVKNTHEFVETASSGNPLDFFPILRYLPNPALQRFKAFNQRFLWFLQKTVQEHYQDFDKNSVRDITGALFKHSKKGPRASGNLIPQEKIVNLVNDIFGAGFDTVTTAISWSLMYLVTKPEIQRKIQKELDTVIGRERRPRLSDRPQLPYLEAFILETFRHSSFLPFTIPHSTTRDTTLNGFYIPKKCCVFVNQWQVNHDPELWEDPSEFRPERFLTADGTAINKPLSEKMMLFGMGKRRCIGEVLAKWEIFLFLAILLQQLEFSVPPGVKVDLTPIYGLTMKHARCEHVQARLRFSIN

[12] = molecular target: Glyceraldehyde-3-phosphate dehydrogenase (Homo sapiens, UniProt P04406)
Bcl-2-related protein A1 [13] = molecular target: T2, Bcl-2-related protein A1 (Mus musculus, UniProt Q07440); assay: small-molecule antagonists of Bfl-1/BH3 interaction – biochemical, TR-FRET, mouse Bfl-1, confirmation (AID 621);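 also: TR-FRET binding of GST-Bfl-1 to FITC-labelled Bid peptide via terbium antibody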
T2 sequence (Q07440 whole entry): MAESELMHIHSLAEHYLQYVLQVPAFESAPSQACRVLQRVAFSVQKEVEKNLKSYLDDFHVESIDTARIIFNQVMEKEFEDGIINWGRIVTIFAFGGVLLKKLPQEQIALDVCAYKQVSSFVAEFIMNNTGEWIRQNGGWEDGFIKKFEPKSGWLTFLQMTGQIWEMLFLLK

Bcl-2-related protein A1 [14] = molecular target: T2, Bcl-2-related protein A1; assay: Bfl-1 binding inhibitors, SAR follow-up, biochemical, fluorescence polarization (AID 1070)
[15] = HPDE-C7 pancreatic duct cell viability loss – fluorescence, HTS (AID 430); format: functional, cell-based; conditions: Homo sapiens
[16] = viability loss of HPDE-C7K cells – cell-based, fluorescence, HTS, primary screen (AID 431); format: functional; conditions: Homo sapiens
[17] = viability of PTEN-deleted HCT116 cells – cell-based, HCT116 PTEN knockout, dose response (AID 1047); format: functional;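 also: HCT116 colon tumor cells with PTEN knocked out; cells exposed to compound for 60 hours before readout; potency for loss of cell viability measured by luminescence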
[18] = viability of HCT116 lacking mutant beta-catenin – cell-based, human colon tumor, dose response (AID 1045); format: functional;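 also: HCT116 colon tumor cells with beta catenin knocked out; cells exposed to compound for 60 hours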
[19] = reduction of Shn3 3'UTR-driven luciferase in osteoblasts – cell-based, Clone20 osteoblasts, firefly luciferase, cherry-picked, dose response (AID 624132); format: functional;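 also: firefly luciferase luminescence from reporter carrying the Shn3 3'UTR in osteoblasts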
[20] = loss of viability in HepG2 cells – cell-based, CellTiter-Glo, cherry-picked, cytotoxicity control for Shn3 inhibitor project, dose response (AID 624134); format: functional
[21] = non-specific 3'UTR reporter inhibition in Clone20-Shn3RL – cell-based, Renilla luciferase, cherry-picked, counter-screen for Shn3 inhibitor project, dose response (AID 624133); format: functional

Chain of Cytochrome P450 2D6 (P10635 whole entry): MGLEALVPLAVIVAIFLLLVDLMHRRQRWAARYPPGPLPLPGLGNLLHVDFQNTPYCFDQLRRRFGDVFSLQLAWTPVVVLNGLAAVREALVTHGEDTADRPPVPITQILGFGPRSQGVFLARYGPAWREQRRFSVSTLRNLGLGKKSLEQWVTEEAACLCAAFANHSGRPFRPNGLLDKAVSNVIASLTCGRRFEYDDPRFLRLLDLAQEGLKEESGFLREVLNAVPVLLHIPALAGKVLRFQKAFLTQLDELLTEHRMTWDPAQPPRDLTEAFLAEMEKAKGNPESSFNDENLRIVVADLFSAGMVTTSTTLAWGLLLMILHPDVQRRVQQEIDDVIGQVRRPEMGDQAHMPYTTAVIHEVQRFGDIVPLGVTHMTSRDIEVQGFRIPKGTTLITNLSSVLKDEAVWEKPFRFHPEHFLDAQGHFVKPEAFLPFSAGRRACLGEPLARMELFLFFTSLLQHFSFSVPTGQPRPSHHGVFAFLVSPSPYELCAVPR
Chain of Cytochrome P450 2C19 (P33261 whole entry): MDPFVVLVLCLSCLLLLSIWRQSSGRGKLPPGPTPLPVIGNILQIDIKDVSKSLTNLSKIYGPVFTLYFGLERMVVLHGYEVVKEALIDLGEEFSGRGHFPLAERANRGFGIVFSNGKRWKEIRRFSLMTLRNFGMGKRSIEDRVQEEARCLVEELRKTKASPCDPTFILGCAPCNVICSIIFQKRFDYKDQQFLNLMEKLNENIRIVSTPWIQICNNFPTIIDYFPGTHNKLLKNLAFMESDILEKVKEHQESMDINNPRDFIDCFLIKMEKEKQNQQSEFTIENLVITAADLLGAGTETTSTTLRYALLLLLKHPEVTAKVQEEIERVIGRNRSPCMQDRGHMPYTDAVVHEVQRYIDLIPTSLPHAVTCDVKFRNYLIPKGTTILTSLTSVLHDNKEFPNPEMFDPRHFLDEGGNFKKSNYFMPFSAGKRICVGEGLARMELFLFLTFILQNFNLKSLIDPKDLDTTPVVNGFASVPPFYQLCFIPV
Chain of Glyceraldehyde-3-phosphate dehydrogenase (P04406 whole entry): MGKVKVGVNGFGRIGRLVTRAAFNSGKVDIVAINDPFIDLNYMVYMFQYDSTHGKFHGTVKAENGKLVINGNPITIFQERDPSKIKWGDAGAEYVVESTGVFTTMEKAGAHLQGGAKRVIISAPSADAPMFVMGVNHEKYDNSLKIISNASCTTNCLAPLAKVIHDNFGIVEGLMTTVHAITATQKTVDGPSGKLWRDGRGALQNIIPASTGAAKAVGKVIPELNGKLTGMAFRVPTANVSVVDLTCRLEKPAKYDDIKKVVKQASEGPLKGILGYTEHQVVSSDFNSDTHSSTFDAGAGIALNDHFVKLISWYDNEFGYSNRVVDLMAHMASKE
Chain of Lysosomal acid glucosylceramidase (P04062 whole entry): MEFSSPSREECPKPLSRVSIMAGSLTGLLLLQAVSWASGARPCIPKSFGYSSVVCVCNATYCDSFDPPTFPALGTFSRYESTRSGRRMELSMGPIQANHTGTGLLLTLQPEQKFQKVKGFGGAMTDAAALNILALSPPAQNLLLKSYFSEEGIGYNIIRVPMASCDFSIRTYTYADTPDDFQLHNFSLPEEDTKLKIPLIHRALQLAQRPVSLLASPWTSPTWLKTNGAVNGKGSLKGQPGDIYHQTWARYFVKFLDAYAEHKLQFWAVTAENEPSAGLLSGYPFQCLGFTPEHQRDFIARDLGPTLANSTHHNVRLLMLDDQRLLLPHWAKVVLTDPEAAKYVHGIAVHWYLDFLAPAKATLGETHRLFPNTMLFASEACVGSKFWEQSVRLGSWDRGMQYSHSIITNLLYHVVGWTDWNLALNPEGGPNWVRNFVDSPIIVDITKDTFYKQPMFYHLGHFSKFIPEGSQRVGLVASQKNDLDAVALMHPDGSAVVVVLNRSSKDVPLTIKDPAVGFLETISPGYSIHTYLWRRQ

With `Cc1ccc(N2C(=O)Nc3ccc(Br)cc3C2(O)C(=O)NCCCN(C)C)cc1C` (stereo not given) the EC50 [1] was > 50 µM (not active).

For `CC(C)c1ccc(-n2c(-c3ccccc3)c[n+]3c2CCc2ccccc2-3)cc1`, the EC50 [2] was 9.52 µM (active), the EC50 [3] was > 120 µM (not active) and the EC50 [4] was 11.7 µM (active). For the same compound, the EC50 [5] was < 0.1 µM (active), the EC50 [6] was > 60 µM (not active) and the EC50 (cells) was 0.041 µM (active).

For `Cc1cccc(NC(=O)c2ccc([N+](=O)[O-])o2)c1`, the IC50 [7] was 1.18 µM (active), the EC50 [8] was 18 µM (active) and the EC50 [9] was 1.42 µM (active). The CC50 (Vero) was 10 µM (active).

In the case of `OCCOCCn1c(C2CCCN2c2nc(-c3ccc(F)cc3)cs2)nc2cc(Cl)c(Cl)cc21` (stereo not given), the CC50 [10] is reported as 37.6 µM (active) and the AC50 [11] is reported as 6.11 µM (active).

For `Cc1cc(O)nc(N/N=C/c2c(F)c(F)c(F)c(F)c2F)n1`, the CC50 [10] was > 40 µM (active).

In the case of `COc1ccc(OCC2CC3C(CCC(C)C3c3ccc(Br)cc3)C(=O)O2)cc1` (stereo not given), the AC50 (Cytochrome P450 2D6) is reported as 7.94 µM (inconclusive).

With `COc1ccc(N2CCc3c(C)nc4c(OC)cc(OC)cc4c32)c(OC)c1` the IC50 [7] was 1.87 µM (active), the EC50 [5] was 0.839 µM (active) and the EC50 [6] was > 60 µM (not active). The AC50 (Cytochrome P450 2C19) was 28.2 µM (inconclusive) and the AC50 (Cytochrome P450 1A2) was 22.4 µM (inconclusive).

In the case of `CCOC(=O)CS(=O)(=O)c1nc2c(c(C(F)(F)F)n1)CCc1ccccc1-2`, the IC50 [12] is reported as > 100 µM (not active), the IC50 (Bcl-2-related protein A1 [13]) is reported as > 100 µM (not active) and the IC50 (Bcl-2-related protein A1 [14]) is reported as > 100 µM (not active).

For `Cc1cc(C)c(O)c(-c2cc(C(=O)Nc3ccc(S(=O)(=O)N4CCOCC4)cc3)[nH]n2)c1`, the EC50 [15] was 9.42 µM (active), the EC50 [16] was 9.32 µM (active) and the EC50 [17] was 8.35 µM (active). For the same compound, the EC50 [18] was 10 µM (active), the AC50 [19] was 5.48 µM (active) and the AC50 [20] was 19.9 µM (active). The AC50 [21] was 7.37 µM (active).
